Test results as given in article PMC12892976, “Alkylation-based optimization of antifungal FPPS inhibitors yields a potent, broad-spectrum lipophilic zoledronate derivative” (mBio, 2025).
In brackets after ≈: the same amount, converted by molar mass.

Key:
[1] = system: Saccharomyces cerevisiae; assay: checkerboard drug interaction (FICI, MICc); type: cell-based;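 note: simplified diagonal checkerboard screen pairing antifungals with FPPS inhibitors, FICI calculated under the Loewe additivity model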
Experimental: (§1) Drug interactions between antifungals and FPPS inhibitors were investigated using a simplified checkerboard diagonal screening method ([45]). […] FICIs were determined according to the Loewe additivity model ([17]).

[2] = system: eight fungal species; assay: checkerboard interaction with azoles, summary across the eight species; type: cell-based
Excerpt: Synergy between lipophilic FPPS inhibitors and azole antifungals was investigated by determining the fractional inhibitory concentration index (FICI) (Fig. 2; Table S1 Fig. S1) ([17]). […]. Derivatives PLA9 and 11, and PDA9, 11, and 12 antagonized azoles in C. albicans, C. neoformans, and C. deuterogattii, yet were largely synergistic in C. glabrata and S. cerevisiae. […].

[3] = system: Cryptococcus deuterogattii; assay: MIC/MFC broth microdilution (CLSI);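 note: broth microdilution per CLSI M27-Ed4. MFC is the lowest concentration yielding no colonies when MIC broths are subcultured onto SDA plates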
Experimental: (§2) Antifungal susceptibility was determined by broth microdilution according to the CLSI guidelines described in M27-Ed4 ([16]). […] MFC was determined by back-plating drug-treated cultures from MIC broths onto SDA plates. The MFC was defined as the lowest concentration from which no colonies could be cultured.

[4] = system: Trichophyton rubrum; assay: MIC/MFC broth microdilution (CLSI)
Experimental: as §2

[5] = system: Aspergillus flavus; assay: checkerboard drug interaction (FICI, MICc); type: cell-based; parameters: INH MICc (KET:INH) / INH MICc (FLC:INH): unit not given beside the values;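 note: simplified diagonal checkerboard screen pairing azole antifungals with FPPS inhibitors, FICI calculated under the Loewe additivity model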
[6] = system: Saccharomyces cerevisiae; assay: MIC/MFC broth microdilution (CLSI); type: cell-based; settings: Saccharomyces cerevisiae S288c
Experimental: as §2

[7] = system: Cryptococcus neoformans; assay: MIC/MFC broth microdilution (CLSI);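 note: susceptibility testing followed the CLSI M27-Ed4 broth microdilution document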
Experimental: as §2

[8] = system: Candida glabrata; assay: checkerboard drug interaction (FICI, MICc); type: cell-based; settings: for INH FD (MIC-MICc fold decrease): fold decrease of inhibitor MIC;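 for all read-outs here: simplified diagonal checkerboard screen pairing antifungals with FPPS inhibitors, FICI calculated under the Loewe additivity model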
Experimental: as §1

[9] = system: Cryptococcus neoformans; assay: checkerboard drug interaction (FICI, MICc); type: cell-based; settings: for INH FD (MIC-MICc fold decrease): fold decrease of inhibitor MIC;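 for all read-outs here: antifungal plus FPPS inhibitor pairs tested against Cryptococcus neoformans by simplified diagonal checkerboard screening, FICI computed under the Loewe additivity model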
Experimental: as §1

[10] = system: Cryptococcus deuterogattii; assay: checkerboard drug interaction (FICI, MICc); type: cell-based; settings: for INH FD (MIC-MICc fold decrease): fold decrease of inhibitor MIC;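 for all read-outs here: simplified diagonal checkerboard screen pairing antifungal drugs with FPPS inhibitors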
Experimental: as §1

[11] = C. glabrata, FLC:INH combination
[12] = C. glabrata, ITR:INH combination
[13] = C. glabrata, KET:INH combination
[14] = C. neoformans, FLC:INH combination
[15] = C. neoformans, ITR:INH combination
[16] = C. neoformans, KET:INH combination
[17] = C. deuterogattii, FLC:INH combination
[18] = C. deuterogattii, ITR:INH combination
[19] = C. deuterogattii, KET:INH combination

For `O=P(O)(O)C(O)(Cn1ccnc1)P(=O)(O)O` [ZOL, zoledronate], the “INH FD (MIC-MICc fold decrease)” value ([1]; S. cerevisiae, KET:INH combination, fold decrease of inhibitor MIC) was 8, the FICI ([1]; VOR:ZOL) was 0.75 and the “bisphosphonate MICc” value ([1]; ZOL with 5FC) was 64. For the same compound, the “bisphosphonate MICc” value ([1]; ZOL with AMB) was 128, the “bisphosphonate MICc” value ([1]; ZOL with CAS) was 2 and the “bisphosphonate MICc” value ([1]; ZOL with FLC) was 32. For the same compound, the “bisphosphonate MICc” value ([1]; ZOL with ITR) was 64, the “bisphosphonate MICc” value ([1]; ZOL with KET) was 32 and the “bisphosphonate MICc” value ([1]; ZOL with VOR) was 64. The FICI ([1]; with FLC, Saccharomyces cerevisiae) was 0.38, the FICI ([1]; with ITR, Saccharomyces cerevisiae) was 0.50 and the FICI ([1]; with KET, Saccharomyces cerevisiae) was 0.25. For the same compound, the “effect on azole MIC in combination” value ([2]; across all species tested) was “consistently reduced the MIC of the azole”, the “antagonism with azole drugs” value ([2]; any of the azole drugs in any species tested) was “no antagonism” and the “GM fungal MICc” value ([2]; geometric mean MIC in combination with azoles) was 14.3. The MFC ([3]; Cryptococcus deuterogattii) was 128 µg/mL (≈ 470 µM), the MIC ([3]; Cryptococcus deuterogattii) was 128 µg/mL (≈ 470 µM) and the “MIC / MEC” value ([3]; Cryptococcus deuterogattii R265) was 128 µg/mL (≈ 470 µM). The MFC ([4]; Trichophyton rubrum) was over 128 µg/mL, the MIC ([4]; Trichophyton rubrum) was 128 µg/mL (≈ 470 µM) and the “MIC / MEC” value ([4]; Trichophyton rubrum R-218) was 128 µg/mL (≈ 470 µM). For the same compound, the FICI ([5]; 5FC:ZOL) was 2, the “FICI (FLC:INH)” value ([5]; A. flavus, Fractional Inhibitory Concentration Index, fluconazole + inhibitor) was 0.63 and the “FICI (ITR:INH)” value ([5]; A. flavus, Fractional Inhibitory Concentration Index, itraconazole + inhibitor) was 1.13. The “FICI (KET:INH)” value ([5]; A. flavus, Fractional Inhibitory Concentration Index, ketoconazole + inhibitor) was 1.5, the “INH MICc (FLC:INH)” value ([5]; A. flavus, MIC of the inhibitor in combination with fluconazole) was 32 and the “INH MICc (ITR:INH)” value ([5]; A. flavus, MIC of the inhibitor in combination with itraconazole) was 32. The “INH MICc (KET:INH)” value ([5]; A. flavus, MIC of the inhibitor in combination with ketoconazole) was 128, the “FLC FD (FLC:INH)” value ([5]; A. flavus, MIC-MICc fold decrease of fluconazole, negative = increase) was 2 and the “ITR FD (ITR:INH)” value ([5]; A. flavus, MIC-MICc fold decrease of itraconazole, negative = increase) was 1. The “KET FD (KET:INH)” value ([5]; A. flavus, MIC-MICc fold decrease of ketoconazole, negative = increase) was 1, the “INH FD (FLC:INH)” value ([5]; A. flavus, MIC-MICc fold decrease of the inhibitor, with fluconazole) was 8 and the “INH FD (ITR:INH)” value ([5]; A. flavus, MIC-MICc fold decrease of the inhibitor, with itraconazole) was 8. The “INH FD (KET:INH)” value ([5]; A. flavus, MIC-MICc fold decrease of the inhibitor, with ketoconazole) was 2, the FICI ([5]; AMB:ZOL) was 0.63 and the FICI ([5]; CAS:ZOL) was 1. It also gave an FICI ([5]; FLC:ZOL) of 0.56, an FICI ([5]; ITR:ZOL) of 1.06 and an FICI ([5]; KET:ZOL) of 1.25. The FICI ([5]; VOR:ZOL) was 1, the “bisphosphonate MICc” value ([5]; ZOL with 5FC) was 512 and the “bisphosphonate MICc” value ([5]; ZOL with AMB) was 64. For the same compound, the “bisphosphonate MICc” value ([5]; ZOL with CAS) was 256, the “bisphosphonate MICc” value ([5]; ZOL with FLC) was 32 and the “bisphosphonate MICc” value ([5]; ZOL with ITR) was 32. For the same compound, the “bisphosphonate MICc” value ([5]; ZOL with KET) was 128, the “bisphosphonate MICc” value ([5]; ZOL with VOR) was 256 and the FICI ([5]; with FLC, Aspergillus flavus) was 0.63. The FICI ([5]; with ITR, Aspergillus flavus) was 1.13, the FICI ([5]; with KET, Aspergillus flavus) was 1.50 and the MFC [6] was over 128 µg/mL. The MIC [6] was over 128 µg/mL, the “MIC / MEC” value [6] was 256 µg/mL (≈ 941 µM) and the MFC ([7]; Cryptococcus neoformans) was over 128 µg/mL. The MIC ([7]; Cryptococcus neoformans) was 32 µg/mL (≈ 118 µM), the “MIC / MEC” value ([7]; Cryptococcus neoformans H99) was 32 µg/mL (≈ 118 µM) and the FICI ([8]; 5FC:ZOL) was 0.63. The FICI ([8]; AMB:ZOL) was 0.63, the FICI [8, 11] was 0.09 and the “INH MICc” value ([8]; C. glabrata, FLC:INH combination, MIC of the inhibitor in combination with FLC) was 1. For the same compound, the “FLC FD (MIC-MICc fold decrease)” value ([8]; C. glabrata, FLC:INH combination, fold decrease of FLC MIC) was 16, the “INH FD (MIC-MICc fold decrease)” value [8, 11] was 8 and the FICI [8, 12] was 0.16. For the same compound, the “INH MICc” value ([8]; C. glabrata, ITR:INH combination, MIC of the inhibitor in combination with ITR) was 1, the “ITR FD (MIC-MICc fold decrease)” value ([8]; C. glabrata, ITR:INH combination, fold decrease of ITR MIC) was 8 and the “INH FD (MIC-MICc fold decrease)” value [8, 12] was 8. The FICI [8, 13] was 0.31, the “INH MICc” value ([8]; C. glabrata, KET:INH combination, MIC of the inhibitor in combination with KET) was 2 and the “KET FD (MIC-MICc fold decrease)” value ([8]; C. glabrata, KET:INH combination, fold decrease of KET MIC) was 4. For the same compound, the “INH FD (MIC-MICc fold decrease)” value [8, 13] was 4, the FICI ([8]; CAS:ZOL) was 2.05 and the FICI ([8]; FLC:ZOL) was 0.09. It also gave an FICI ([8]; ITR:ZOL) of 0.16, an FICI ([8]; KET:ZOL) of 0.31 and an FICI ([8]; VOR:ZOL) of 0.38. For the same compound, the “bisphosphonate MICc” value ([8]; ZOL with 5FC) was 1, the “bisphosphonate MICc” value ([8]; ZOL with AMB) was 1 and the “bisphosphonate MICc” value ([8]; ZOL with CAS) was 1. For the same compound, the “bisphosphonate MICc” value ([8]; ZOL with FLC) was 1, the “bisphosphonate MICc” value ([8]; ZOL with ITR) was 1 and the “bisphosphonate MICc” value ([8]; ZOL with KET) was 2. For the same compound, the “bisphosphonate MICc” value ([8]; ZOL with VOR) was 1, the FICI ([8]; with FLC, Candida glabrata) was 0.09 and the FICI ([8]; with ITR, Candida glabrata) was 0.16. For the same compound, the FICI ([8]; with KET, Candida glabrata) was 0.31, the FICI ([9]; 5FC:ZOL) was 0.75 and the FICI ([9]; AMB:ZOL) was 2.25. For the same compound, the FICI [9, 14] was 0.38, the “INH MICc” value ([9]; C. neoformans, FLC:INH combination, MIC of the inhibitor in combination with FLC) was 8 and the “FLC FD (MIC-MICc fold decrease)” value ([9]; C. neoformans, FLC:INH combination, fold decrease of FLC MIC) was 4. The “INH FD (MIC-MICc fold decrease)” value [9, 14] was 8, the FICI [9, 15] was 0.19 and the “INH MICc” value ([9]; C. neoformans, ITR:INH combination, MIC of the inhibitor in combination with ITR) was 4. For the same compound, the “ITR FD (MIC-MICc fold decrease)” value ([9]; C. neoformans, ITR:INH combination, fold decrease of ITR MIC) was 8, the “INH FD (MIC-MICc fold decrease)” value [9, 15] was 16 and the FICI [9, 16] was 0.19. The “INH MICc” value ([9]; C. neoformans, KET:INH combination, MIC of the inhibitor in combination with KET) was 4, the “KET FD (MIC-MICc fold decrease)” value ([9]; C. neoformans, KET:INH combination, fold decrease of KET MIC) was 8 and the “INH FD (MIC-MICc fold decrease)” value [9, 16] was 16. For the same compound, the FICI ([9]; CAS:ZOL) was at least 4, the FICI ([9]; FLC:ZOL) was 0.38 and the FICI ([9]; ITR:ZOL) was 0.19. The FICI ([9]; KET:ZOL) was 0.19, the FICI ([9]; VOR:ZOL) was 0.98 and the “bisphosphonate MICc” value ([9]; ZOL with 5FC) was 16. The “bisphosphonate MICc” value ([9]; ZOL with AMB) was 8, the “bisphosphonate MICc” value ([9]; ZOL with CAS) was 128 and the “bisphosphonate MICc” value ([9]; ZOL with FLC) was 8. For the same compound, the “bisphosphonate MICc” value ([9]; ZOL with ITR) was 4, the “bisphosphonate MICc” value ([9]; ZOL with KET) was 4 and the “bisphosphonate MICc” value ([9]; ZOL with VOR) was 16. For the same compound, the FICI ([9]; with FLC, Cryptococcus neoformans) was 0.38, the FICI ([9]; with ITR, Cryptococcus neoformans) was 0.19 and the FICI ([9]; with KET, Cryptococcus neoformans) was 0.19. For the same compound, the FICI ([10]; 5FC:ZOL) was 1.02, the FICI ([10]; AMB:ZOL) was 2 and the FICI [10, 17] was 0.25. The “INH MICc” value ([10]; C. deuterogattii, FLC:INH combination, MIC of the inhibitor in combination with FLC) was 8, the “FLC FD (MIC-MICc fold decrease)” value ([10]; C. deuterogattii, FLC:INH combination, fold decrease of FLC MIC) was 8 and the “INH FD (MIC-MICc fold decrease)” value [10, 17] was 8. For the same compound, the FICI [10, 18] was 0.38, the “INH MICc” value ([10]; C. deuterogattii, ITR:INH combination, MIC of the inhibitor in combination with ITR) was 8 and the “ITR FD (MIC-MICc fold decrease)” value ([10]; C. deuterogattii, ITR:INH combination, fold decrease of ITR MIC) was 4. For the same compound, the “INH FD (MIC-MICc fold decrease)” value [10, 18] was 8, the FICI [10, 19] was 0.31 and the “INH MICc” value ([10]; C. deuterogattii, KET:INH combination, MIC of the inhibitor in combination with KET) was 16. The “KET FD (MIC-MICc fold decrease)” value ([10]; C. deuterogattii, KET:INH combination, fold decrease of KET MIC) was 16, the “INH FD (MIC-MICc fold decrease)” value [10, 19] was 4 and the FICI ([10]; CAS:ZOL) was 1.5. For the same compound, the FICI ([10]; FLC:ZOL) was 0.25, the FICI ([10]; ITR:ZOL) was 0.38 and the FICI ([10]; KET:ZOL) was 0.31. For the same compound, the FICI ([10]; VOR:ZOL) was 0.5, the “bisphosphonate MICc” value ([10]; ZOL with 5FC) was 128 and the “bisphosphonate MICc” value ([10]; ZOL with AMB) was 128. For the same compound, the “bisphosphonate MICc” value ([10]; ZOL with CAS) was 64, the “bisphosphonate MICc” value ([10]; ZOL with FLC) was 8 and the “bisphosphonate MICc” value ([10]; ZOL with ITR) was 8. For the same compound, the “bisphosphonate MICc” value ([10]; ZOL with KET) was 16, the “bisphosphonate MICc” value ([10]; ZOL with VOR) was 32 and the FICI ([10]; with FLC, Cryptococcus deuterogattii) was 0.25. The FICI ([10]; with ITR, Cryptococcus deuterogattii) was 0.38 and the FICI ([10]; with KET, Cryptococcus deuterogattii) was 0.31.
